Results as given in patent publication US20240246934A1, “QUINAZOLINE-BASED COMPOUND, COMPOSITION, AND APPLICATION OF QUINAZOLINE-BASED COMPOUND” (BEIJING SCITECH-MQ PHARMACEUTICALS LIMITED, priority 2021, published 2024).
pIC50: −log10 of the molar value.

How the values were obtained:
[1] = target: T1, HER2 kinase (Homo sapiens, UniProt P04626); assay: HER2 kinase assay (ULight/PT66 TR-FRET); format: biochemical
T1 construct: purchased Carna Biosciences 08-016
Procedure, shortened: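 HER2 kinase preincubated 5 min with compounds (11-point 3-fold series, duplicates), then reacted 120 min at room temperature with ATP and ULight-poly GT peptide, each prepared at 4× working concentration (40 μM ATP, 400 nM substrate, 40 nM kinase). PT66 antibody added for 60 min, TR-FRET read; IC50 from inhibition curves.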

[2] = target: Ba/F3 HER2 A775_G776insYVMA cells (Homo sapiens, UniProt P04626, DUP772-775, cells depend on it); assay: Inhibition of cell proliferation, CTG method, Ba/F3 HER2 A775_G776insYVMA; format: cell-based; details: 72 hours, read-out: Ba/F3 HER2 A775-G776insYVMA IC50
Procedure, shortened: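 Ba/F3 HER2 A775_G776insYVMA cells in RPMI1640 with 10% FBS were plated at 3000 cells/well and treated directly with compound (top 10 μM, 4-fold, 9 concentrations, duplicates).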

[3] = system: Ba/F3 ERBB2 A775_G776insYVMA; assay: Efficacy in nude mouse tumor-bearing model of Ba/F3 ERBB2 A775_G776insYVMA; format: in vivo, BALB/c nude mice; details: 30 mg/kg
[4] = target: EGFR^WT kinase (Homo sapiens, UniProt P00533); assay: EGFR^WT kinase assay (ULight/PT66 TR-FRET); format: biochemical
Procedure, shortened: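 Enzyme preincubated 5 min with compound (11-point 3-fold series, duplicate), then ULight-JAK-1 (Tyr1023) peptide and ATP added at 4× stocks of 400 nM and 600 μM; 120 min reaction at room temperature. PT66 antibody TR-FRET read after 60 min; IC50 fitted from inhibition rates.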

T1 sequence (P04626 23-1255): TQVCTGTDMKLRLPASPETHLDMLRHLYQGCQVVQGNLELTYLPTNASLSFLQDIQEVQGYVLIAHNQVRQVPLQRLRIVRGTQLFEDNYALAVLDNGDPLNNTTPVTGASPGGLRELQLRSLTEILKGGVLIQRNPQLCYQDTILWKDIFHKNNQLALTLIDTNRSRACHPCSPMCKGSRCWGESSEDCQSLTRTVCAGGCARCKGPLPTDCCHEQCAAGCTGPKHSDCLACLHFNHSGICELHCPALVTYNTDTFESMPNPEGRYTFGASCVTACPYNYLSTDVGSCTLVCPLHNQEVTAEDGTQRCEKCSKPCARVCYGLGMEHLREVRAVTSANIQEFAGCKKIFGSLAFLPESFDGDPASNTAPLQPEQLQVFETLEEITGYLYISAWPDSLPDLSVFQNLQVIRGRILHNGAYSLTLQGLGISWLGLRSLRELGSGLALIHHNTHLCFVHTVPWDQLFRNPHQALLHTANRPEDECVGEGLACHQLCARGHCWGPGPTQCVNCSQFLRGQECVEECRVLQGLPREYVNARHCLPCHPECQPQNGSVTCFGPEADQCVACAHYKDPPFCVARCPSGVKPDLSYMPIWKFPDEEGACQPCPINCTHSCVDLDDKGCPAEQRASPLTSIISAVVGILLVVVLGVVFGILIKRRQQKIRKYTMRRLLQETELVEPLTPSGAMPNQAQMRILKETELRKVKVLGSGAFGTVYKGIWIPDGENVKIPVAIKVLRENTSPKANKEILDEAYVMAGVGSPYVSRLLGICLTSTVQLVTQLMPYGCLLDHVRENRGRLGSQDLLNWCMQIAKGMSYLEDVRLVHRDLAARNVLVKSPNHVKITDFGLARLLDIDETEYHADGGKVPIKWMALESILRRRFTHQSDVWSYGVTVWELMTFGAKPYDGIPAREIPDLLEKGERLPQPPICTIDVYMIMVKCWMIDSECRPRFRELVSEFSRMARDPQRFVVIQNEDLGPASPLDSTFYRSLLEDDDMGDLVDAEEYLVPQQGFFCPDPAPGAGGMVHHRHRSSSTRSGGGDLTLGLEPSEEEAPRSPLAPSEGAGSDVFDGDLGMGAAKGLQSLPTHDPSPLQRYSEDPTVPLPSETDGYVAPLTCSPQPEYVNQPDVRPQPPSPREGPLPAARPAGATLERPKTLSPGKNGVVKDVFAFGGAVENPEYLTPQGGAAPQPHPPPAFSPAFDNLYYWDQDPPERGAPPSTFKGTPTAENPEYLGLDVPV
Sequence of EGFR^WT kinase (P00533 25-1210): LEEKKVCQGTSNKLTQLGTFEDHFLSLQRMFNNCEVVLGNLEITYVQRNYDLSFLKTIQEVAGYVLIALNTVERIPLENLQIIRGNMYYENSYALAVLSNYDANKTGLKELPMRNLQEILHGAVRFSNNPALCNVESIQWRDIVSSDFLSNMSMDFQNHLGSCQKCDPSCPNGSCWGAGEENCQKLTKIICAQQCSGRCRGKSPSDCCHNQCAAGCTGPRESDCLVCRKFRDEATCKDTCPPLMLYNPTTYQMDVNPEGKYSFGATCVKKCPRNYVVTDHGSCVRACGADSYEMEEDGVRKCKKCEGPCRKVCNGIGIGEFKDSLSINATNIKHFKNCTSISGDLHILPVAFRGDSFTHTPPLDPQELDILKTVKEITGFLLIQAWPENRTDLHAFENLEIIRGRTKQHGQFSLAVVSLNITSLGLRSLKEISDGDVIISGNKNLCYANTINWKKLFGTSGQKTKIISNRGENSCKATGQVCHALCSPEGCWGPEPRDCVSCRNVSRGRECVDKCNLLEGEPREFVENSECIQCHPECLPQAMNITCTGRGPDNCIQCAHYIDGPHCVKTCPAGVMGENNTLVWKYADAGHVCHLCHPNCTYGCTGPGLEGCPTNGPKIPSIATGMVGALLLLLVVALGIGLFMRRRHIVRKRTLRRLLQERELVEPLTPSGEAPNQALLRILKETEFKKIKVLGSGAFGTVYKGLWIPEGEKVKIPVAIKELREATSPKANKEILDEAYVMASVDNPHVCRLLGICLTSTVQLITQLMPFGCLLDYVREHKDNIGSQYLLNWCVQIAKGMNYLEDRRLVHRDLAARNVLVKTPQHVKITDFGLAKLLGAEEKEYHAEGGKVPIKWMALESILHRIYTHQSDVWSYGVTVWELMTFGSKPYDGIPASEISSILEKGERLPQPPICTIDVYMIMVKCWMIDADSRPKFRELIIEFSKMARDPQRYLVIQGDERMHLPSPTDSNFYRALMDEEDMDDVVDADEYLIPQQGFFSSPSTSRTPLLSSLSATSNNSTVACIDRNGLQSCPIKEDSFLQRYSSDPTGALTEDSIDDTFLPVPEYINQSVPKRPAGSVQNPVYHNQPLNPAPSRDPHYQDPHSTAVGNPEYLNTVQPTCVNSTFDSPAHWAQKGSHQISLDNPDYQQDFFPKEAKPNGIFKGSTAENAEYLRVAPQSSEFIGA
Sequence of Ba/F3 HER2 A775_G776insYVMA cells (P04626 with tags, fused parts or gaps DUP772-775): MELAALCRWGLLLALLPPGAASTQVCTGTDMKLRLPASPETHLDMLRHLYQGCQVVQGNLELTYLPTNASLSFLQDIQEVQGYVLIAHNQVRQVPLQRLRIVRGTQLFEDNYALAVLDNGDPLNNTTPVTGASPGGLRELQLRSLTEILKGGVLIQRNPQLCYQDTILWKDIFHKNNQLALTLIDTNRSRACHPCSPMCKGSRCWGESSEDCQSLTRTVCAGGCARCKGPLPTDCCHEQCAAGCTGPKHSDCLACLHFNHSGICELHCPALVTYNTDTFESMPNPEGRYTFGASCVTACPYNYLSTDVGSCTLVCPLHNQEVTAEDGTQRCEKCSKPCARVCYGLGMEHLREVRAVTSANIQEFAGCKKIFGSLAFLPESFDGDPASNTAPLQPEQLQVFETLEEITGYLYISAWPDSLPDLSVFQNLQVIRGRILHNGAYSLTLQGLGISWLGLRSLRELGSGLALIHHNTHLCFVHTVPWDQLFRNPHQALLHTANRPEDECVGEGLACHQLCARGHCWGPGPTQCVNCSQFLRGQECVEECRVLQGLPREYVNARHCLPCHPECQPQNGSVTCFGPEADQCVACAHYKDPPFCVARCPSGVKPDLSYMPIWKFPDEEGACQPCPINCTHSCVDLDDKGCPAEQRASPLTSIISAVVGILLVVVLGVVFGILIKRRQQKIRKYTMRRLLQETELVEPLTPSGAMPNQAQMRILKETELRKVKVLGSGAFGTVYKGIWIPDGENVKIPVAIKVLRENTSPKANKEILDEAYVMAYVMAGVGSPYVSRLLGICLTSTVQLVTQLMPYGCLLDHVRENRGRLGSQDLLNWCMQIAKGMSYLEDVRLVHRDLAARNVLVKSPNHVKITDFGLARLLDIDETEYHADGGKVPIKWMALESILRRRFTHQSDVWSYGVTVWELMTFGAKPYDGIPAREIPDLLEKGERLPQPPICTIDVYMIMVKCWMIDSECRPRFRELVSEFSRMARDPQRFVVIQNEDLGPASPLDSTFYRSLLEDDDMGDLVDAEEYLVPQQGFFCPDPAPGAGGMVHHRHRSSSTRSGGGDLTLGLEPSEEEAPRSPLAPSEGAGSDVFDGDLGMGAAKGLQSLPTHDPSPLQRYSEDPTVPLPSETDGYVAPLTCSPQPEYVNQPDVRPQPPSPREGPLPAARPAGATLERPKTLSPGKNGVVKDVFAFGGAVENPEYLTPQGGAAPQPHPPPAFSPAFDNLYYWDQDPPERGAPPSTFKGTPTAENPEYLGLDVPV

Row | SMILES | pIC50 [1] | GI50 [2] | T/C (%) ([3]; QD×14, PO, day 14) | pIC50 [4] | T/C (%) ([3]; QD×15, PO, day 15) | T/C (%) ([3]; QD×11, PO, day 11)
1 | COc1c(NC(=O)/C=C/[C@H]2CCCN2C)ccc2ncnc(Nc3ccc(OCc4ccccn4)c(Cl)c3)c12 [Example 4, (R,E)-N-(4-((3-chloro-4-(pyridin-2-ylmethoxy)phenyl)amino)-5-methoxyquinazolin-6-yl)-3-(1-methylpyrrolidin-2-yl)acrylamide] | > 8.00 | < 1 nM | 2.6% | > 8.00 |  | 
2 | COCCCOc1c(NC(=O)/C=C/[C@H]2CCCN2C)ccc2ncnc(Nc3ccc(OCc4ccccn4)c(Cl)c3)c12 [Example 9, (R,E)-N-(4-((3-chloro-4-(pyridin-2-ylmethoxy)phenyl)amino)-5-(3-methoxypropoxy)quinazolin-6-yl)-3-(1-methylpyrrolidin-2-yl)acrylamide] | > 8.00 | 1 to 5 nM |  | > 8.00 | 3.85% | 
3 | CCN1CCC[C@@H]1/C=C/C(=O)Nc1ccc2ncnc(Nc3ccc(OCc4ccccn4)c(Cl)c3)c2c1OC [Example 29, (R,E)-N-(4-((3-chloro-4-(pyridin-2-ylmethoxy)phenyl)amino)-5-methoxyquinazolin-6-yl)-3-(1-ethylpyrrolidin-2-yl)acrylamide] | > 8.00 | < 1 nM |  | > 8.00 |  | 18.7%
